Experimental data as given in the supplement of paper PMC11061612.

Tests used:
[1] = test system: BICR10 (Oral Cavity Carcinoma); experiment: Bliss excess, mean over the matrix (fraction); higher = more synergy
Procedure, shortened: (§1)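 Cell lines grown in DMEM/F12 or RPMI with 10% FBS were plated in 1536-well plates and held 24 hours at 37°C, 5% CO2 before 72 hours of exposure to two-drug dose matrices, with DMSO typically at 0.2%. CellTiter-Glo 2.0 luminescence gave viability, which was converted to inhibition. Vehicle wells were set to 0 and blank wells to 1. Combination Emax is the second-highest inhibition in the matrix, and Bliss excess is the observed combination effect minus the expected EA + EB − EA·EB, where EA and EB are the single-agent effects.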

[2] = test system: M059J (Glioblastoma); experiment: as above
Procedure, shortened: as §1

[3] = test system: OCI-AML3 (Acute Myeloid Leukemia); experiment: as above
Procedure, shortened: as §1

[4] = test system: PC-3 (Prostate Carcinoma); experiment: as above
Procedure, shortened: as §1

[5] = test system: BICR10 (Oral Cavity Carcinoma); experiment: combination Emax (second highest fraction inhibited in the dose matrix, 72 h); higher = more inhibition; extreme values may be limits of the assay
Procedure, shortened: as §1

[6] = test system: OCI-AML3 (Acute Myeloid Leukemia); experiment: as above
Procedure, shortened: as §1
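For Bliss excess, mean over the matrix in this document: after 72 h of two-drug dosing.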

C=CCn1c(=O)c2cnc(Nc3ccc(N4CCN(C)CC4)cc3)nc2n1-c1cccc(C(C)(C)O)n1 [AZD1775] + C1CN(CCC1(C(=O)N[C@@H](CCO)C2=CC=C(C=C2)Cl)N)C3=NC=NC4=C3C=CN4 [Capivasertib] (first compound max 3 µM, partner max 3 µM)
Bliss excess [1]: -0.0418 | Bliss excess [2]: -0.064 | Bliss excess [3]: 0.0051 | Bliss excess [4]: -0.0617 | combination Emax [5]: 0.829 | combination Emax [6]: 0.914

NC1(C(=O)N[C@@H](CCO)c2ccc(Cl)cc2)CCN(c2ncnc3[nH]ccc23)CC1 [Capivasertib] + CC(=O)c1c(C)c2cnc(Nc3ccc(N4CCNCC4)cn3)nc2n(C2CCCC2)c1=O [Palbociclib] (first compound max 10 µM, 7x7, partner max 10 µM)
Bliss excess [2]: -0.0489 | Bliss excess [3]: 0.0866 | Bliss excess [4]: 0.0068 | combination Emax [6]: 0.587

Cn1cnc2c(F)c(Nc3ccc(Br)cc3Cl)c(C(=O)NOCCO)cc21 [Selumetinib] + CC(C)n1c(=O)n(C)c2cnc3cc(F)c(-c4ccc(OCCCN5CCCCC5)nc4)cc3c21 [AZD1390] (first compound max 10 µM, 7x7, partner max 0.3 µM)
Bliss excess [2]: -0.0375 | Bliss excess [3]: -0.0696 | Bliss excess [4]: -0.0688 | combination Emax [6]: 0.909

CN(C)CCCOc1ccc(-c2ccc3ncc4c(c3c2)n(C2CCOCC2)c(=O)n4C)cn1 [AZD0156] + O=C(c1cc(Cc2n[nH]c(=O)c3ccccc23)ccc1F)N1CCN(C(=O)C2CC2)CC1 [Olaparib] (first compound max 3 µM, partner max 3 µM)
Bliss excess [1]: 0.0275 | Bliss excess [2]: 0.0304 | Bliss excess [3]: 0.128 | Bliss excess [4]: -0.0088 | combination Emax [5]: 0.348 | combination Emax [6]: 0.392

Cn1cnc2c(F)c(Nc3ccc(Br)cc3Cl)c(C(=O)NOCCO)cc21 [Selumetinib] + C=CCn1c(=O)c2cnc(Nc3ccc(N4CCN(C)CC4)cc3)nc2n1-c1cccc(C(C)(C)O)n1 [AZD1775] (first compound max 10 µM, partner max 1 µM)
Bliss excess [2]: -0.0499 | Bliss excess [3]: -0.0213 | Bliss excess [4]: -0.0947 | combination Emax [6]: 0.94
